# Measured values: patent US10428083B2, “Heterocyclylmethyl-thienouracile as antagonists of the adenosine-A2B-receptor” (BAYER PHARMA AKTIENGESELLSCHAFT, priority 2015, dated 2019)
# Molecular target: human adenosine A2b receptor (Homo sapiens (Human), UniProt P29275)
# Assay: Cellular in vitro reporter gene test for A2b receptor activity (CHO-K1, CRE-luciferase, NECA stimulation)
# Format: cell-based
# Conditions: recombinant CHO-K1 cell line, CRE-luciferase reporter, antagonism of EC50 concentration of NECA; in some cases means of several determinations, rounded to two significant figures; read-out: A2b receptor IC50
# Procedure, shortened: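 CHO-K1 cells with CRE-driven luciferase; antagonists co-incubated with NECA at its EC50, determined in a pre-experiment on each test day. Luciferase read by luminescence 3 h after NECA addition.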
# Sequence of human adenosine A2b receptor (P29275 whole entry): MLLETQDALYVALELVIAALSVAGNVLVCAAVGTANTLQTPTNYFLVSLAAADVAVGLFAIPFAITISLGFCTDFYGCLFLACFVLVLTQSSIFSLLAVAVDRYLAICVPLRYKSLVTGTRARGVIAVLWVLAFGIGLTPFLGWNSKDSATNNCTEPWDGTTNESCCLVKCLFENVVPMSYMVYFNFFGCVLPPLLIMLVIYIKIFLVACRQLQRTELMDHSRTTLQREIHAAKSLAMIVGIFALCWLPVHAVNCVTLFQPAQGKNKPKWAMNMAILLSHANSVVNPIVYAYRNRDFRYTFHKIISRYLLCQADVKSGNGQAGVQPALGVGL
row,SMILES,IC50 [nM]
1,"Cc1c(Cn2nc[nH]c2=O)sc2c1c(=O)n(CC(F)(F)F)c(=O)n2CCC(F)(F)F [Example 432, 5-Methyl-6-[(5-oxo-4,5-dihydro-1H-1,2,4-triazol-1-yl)methyl]-3-(2,2,2-trifluoroethyl)-1-(3,3,3-trifluoropropyl)thieno[2,3-d]pyrimidine-2,4(1H,3H)-dione]",92
2,"COCCn1c(=O)c2c(C)c(Cn3cc[nH]c3=O)sc2n(CC2CCCO2)c1=O (single isomer, unassigned) [Example 348, 3-(2-Methoxyethyl)-5-methyl-6-[(2-oxo-2,3-dihydro-1H-imidazol-1-yl)methyl]-1-(tetrahydrofuran-2-ylmethyl)thieno[2,3-d]pyrimidine-2,4(1H,3H)-dione]",48
3,"Cc1c(Cn2nc[nH]c2=O)sc2c1c(=O)n(CC(C)(C)C)c(=O)n2CC1CCCO1 (single isomer, unassigned) [Example 431, 3-(2,2-Dimethylpropyl)-5-methyl-6-[(5-oxo-4,5-dihydro-1H-1,2,4-triazol-1-yl)methyl]-1-(tetrahydrofuran-2-ylmethyl)thieno[2,3-d]pyrimidine-2,4(1H,3H)-dione]",740
4,"COC(=O)N=C1NCCN1Cc1sc2c(c1C)c(=O)n(C(C)C)c(=O)n2CC1CCO1 (single isomer, unassigned) [Example 458, Methyl [1-{[3-isopropyl-5-methyl-1-(oxetan-2-ylmethyl)-2,4-dioxo-1,2,3,4-tetrahydrothieno[2,3-d]pyrimidin-6-yl]methyl}imidazolidin-2-ylidene]carbamate]",34
5,"Cc1c(CN2CCNC2=O)sc2c1c(=O)n(CC(F)F)c(=O)n2CC1CCCO1 (single isomer, unassigned) [Example 221, 3-(2,2-Difluoroethyl)-5-methyl-6-[(2-oxoimidazolidin-1-yl)methyl]-1-(tetrahydrofuran-2-ylmethyl)thieno[2,3-d]pyrimidine-2,4(1H,3H)-dione]",29

# Now those with a lower IC50, led by results:
row,IC50 [nM],SMILES
1,24,"COCCn1c(=O)n(CC(C)(C)C)c(=O)c2c(C)c(CN3CCNC(=O)C3=O)sc21 [Example 274, 3-(2,2-Dimethylpropyl)-6-[(2,3-dioxopiperazin-1-yl)methyl]-1-(2-methoxyethyl)-5-methylthieno[2,3-d]pyrimidine-2,4(1H,3H)-dione]"
2,22,"Cc1c(CN2CCNC2=O)sc2c1c(=O)n(CC(C)(C)O)c(=O)n2CCC(F)(F)F [Example 227, 3-(2-Hydroxy-2-methylpropyl)-5-methyl-6-[(2-oxoimidazolidin-1-yl)methyl]-1-(3,3,3-trifluoropropyl)thieno[2,3-d]pyrimidine-2,4(1H,3H)-dione]"
3,11,"Cc1c(CN2CCNC2=S)sc2c1c(=O)n(CC(F)F)c(=O)n2CCCF [Example 42, 3-(2,2-Difluoroethyl)-1-(3-fluoropropyl)-5-methyl-6-[(2-thioxoimidazolidin-1-yl)methyl]thieno[2,3-d]pyrimidine-2,4(1H,3H)-dione]"
4,9.8,"CCn1c(=O)c2c(C)c(CN3CCNC3=NC#N)sc2n(CC2CCCO2)c1=O (racemic) [Example 259, [1-{[3-Ethyl-5-methyl-2,4-dioxo-1-(tetrahydrofuran-2-ylmethyl)-1,2,3,4-tetrahydrothieno[2,3-d]pyrimidin-6-yl]methyl}imidazolidin-2-ylidene]cyanamide]"
5,5.5,"Cc1c(CN2CCNC2=S)sc2c1c(=O)n(CC(F)(F)F)c(=O)n2CC1COC1 [Example 158, 5-Methyl-1-(oxetan-3-ylmethyl)-6-[(2-thioxoimidazolidin-1-yl)methyl]-3-(2,2,2-trifluoroethyl)thieno[2,3-d]pyrimidine-2,4(1H,3H)-dione]"
6,4.1,"Cc1c(CN2CCNC2=S)sc2c1c(=O)n(CC(C)C)c(=O)n2CC1CCO1 (single isomer, unassigned) [Example 148, 3-Isobutyl-5-methyl-1-(oxetan-2-ylmethyl)-6-[(2-thioxoimidazolidin-1-yl)methyl]thieno[2,3-d]pyrimidine-2,4(1H,3H)-dione]"
